Source: PubChem BioAssay AID256 (DTP/NCI, 2004)
“And” between values parts separate entries of the source, which are not always exact repeats. Identical values can stand only once. Inconclusive results and toxic doses are left out. Rule for the calls: active = survival T/C of 150% or more; inactive = T/C below 125% in these data.

Tested on: CD2F1 mice, L1210 leukemia ip, survival T/C
Assay: NCI In Vivo Anticancer Drug Screen. Data for tumor model L1210 Leukemia (intraperitoneal) in CD2F1 (CDF1) mice
Settings: higher = longer survival
Method in brief: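 Vehicle-treated tumor-bearing mice served as controls (C) for compound-treated mice (T). Reported figure is T divided by C.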

[1] = endpoint: mean survival time, dose: 12.5 mg/kg/injection, schedule: Q01DX005 (ip), vehicle: water
[2] = endpoint: mean survival time, dose: 25.0 mg/kg/injection, schedule: Q01DX005 (ip), vehicle: water
[3] = endpoint: mean survival time, dose: 50.0 mg/kg/injection, schedule: Q01DX005 (ip), vehicle: water
[4] = endpoint: mean survival time, dose: 100.0 mg/kg/injection, schedule: Q01DX005 (ip), vehicle: water
[5] = endpoint: mean survival time, dose: 200.0 mg/kg/injection, schedule: Q01DX005 (ip), vehicle: water
[6] = endpoint: mean survival time, dose: 100.0 mg/kg/injection, schedule: Q04DX003 (ip), vehicle: saline with Tween-80
[7] = endpoint: mean survival time, dose: 200.0 mg/kg/injection, schedule: Q04DX003 (ip), vehicle: saline with Tween-80
[8] = endpoint: mean survival time, dose: 12.5 mg/kg/injection, schedule: Q01DX009 (ip), vehicle: saline with Tween-80
[9] = endpoint: mean survival time, dose: 25.0 mg/kg/injection, schedule: Q01DX009 (ip), vehicle: saline
[10] = endpoint: mean survival time, dose: 50.0 mg/kg/injection, schedule: Q01DX009 (ip), vehicle: saline

Measured: T/C

Cn1c(=O)c2c(ncn2CCNCC(O)c2ccc(O)c(O)c2)n(C)c1=O (stereo not given)
inactive: [1] 100 % of control | [2] 106 % of control | [3] 97 % of control | [4] 101 % of control | [5] 106 % of control

Cn1c(=O)c2c(nc(-[n+]3ccccc3)n2C)n(C)c1=O
inactive: [1] 94 % of control | [2] 100 % of control | [3] 103 % of control | [4] 103 % of control | [5] 120 % of control

Clc1ccc(COC(Cn2ccnc2)c2ccc(Cl)cc2Cl)c(Cl)c1 (stereo not given)
inactive: [6] 91 % of control | [7] 93 % of control

ClCCN(Cc1ccccc1)Cc1ccccc1
inactive: endpoint: mean survival time, dose: 3.13 mg/kg/injection, schedule: Q01DX009 (ip), vehicle: saline with Tween-80 100 % of control | endpoint: mean survival time, dose: 6.25 mg/kg/injection, schedule: Q01DX009 (ip), vehicle: saline with Tween-80 102 % of control | [8] 96 % of control

CCCCCCCCCCCCCCCC(=O)N(CCCN(CC)CC)C(C)CCCN(CC)CC (stereo not given)
inactive: endpoint: mean survival time, dose: 1.56 mg/kg/injection, schedule: Q01DX009 (ip), vehicle: water 102 % of control | endpoint: mean survival time, dose: 3.13 mg/kg/injection, schedule: Q01DX009 (ip), vehicle: water 100 % of control | endpoint: mean survival time, dose: 6.25 mg/kg/injection, schedule: Q01DX009 (ip), vehicle: water 96 % of control

CCOC(OCC)c1cc(=O)[nH]c(N)n1
inactive: endpoint: mean survival time, dose: 100.0 mg/kg/injection, schedule: Q01DX001 (ip), vehicle: saline 103 % of control | endpoint: mean survival time, dose: 200.0 mg/kg/injection, schedule: Q01DX001 (ip), vehicle: saline 101 % of control | endpoint: mean survival time, dose: 400.0 mg/kg/injection, schedule: Q01DX001 (ip), vehicle: saline 100 % of control

CCC[CH2][Sn]([CH2]CCC)([CH2]CCC)[CH2]CC(=O)OC
inactive: [6] 101 % of control | [7] 95 % of control

Cc1c(N=Nc2cc[n+]([O-])cc2)ccc(N(C)C)c1C
inactive: [6] 102 % of control | [7] 97 % of control

CC(=O)[O][Hg][O]C(C)=O
inactive: endpoint: mean survival time, dose: 1.25 mg/kg/injection, schedule: Q01DX009 (ip), vehicle: saline sonified 95 % of control | endpoint: mean survival time, dose: 2.5 mg/kg/injection, schedule: Q01DX009 (ip), vehicle: saline sonified 103 % of control | endpoint: mean survival time, dose: 5.0 mg/kg/injection, schedule: Q01DX009 (ip), vehicle: saline sonified 90 % of control | endpoint: mean survival time, dose: 5.0 mg/kg/injection, schedule: Q04DX003 (ip), vehicle: saline with Tween-80 106 % of control

ClC1C2c3ccccc3C(C1Cl)[n+]1ccccc12 (stereo not given)
inactive: endpoint: mean survival time, dose: 12.5 mg/kg/injection, schedule: Q04DX003 (ip), vehicle: Klucel (hydroxypropylcellulose) (HPC) 93 % of control | endpoint: mean survival time, dose: 25.0 mg/kg/injection, schedule: Q04DX003 (ip), vehicle: Klucel (hydroxypropylcellulose) (HPC) 98 % of control

CC(NC(=O)NCCCl)c1ccccc1 (stereo not given)
inactive: [9] 88 % of control | [10] 86 % of control

C=C(NC(=O)C(=C)NC(=O)c1csc(C2=NC3c4csc(n4)C4NC(=O)c5csc(n5)C(C(C)(O)C(C)O)NC(=O)C5CSC(=N5)/C(=C/C)NC(=O)C(C(C)O)NC(=O)c5csc(n5)C3(CC2)NC(=O)C(C)NC(=O)C(=C)NC(=O)C(=C)NC(=O)C(C(C)C)NC2C=Cc3c(C(C)O)cc(nc3C2O)C(=O)OC4C)n1)C(N)=O (stereo not given)
inactive: endpoint: mean survival time, dose: 3.12 mg/kg/injection, schedule: Q01DX009 (ip), vehicle: saline 107 % of control | endpoint: mean survival time, dose: 6.25 mg/kg/injection, schedule: Q01DX009 (ip), vehicle: saline 113 % of control | endpoint: mean survival time, dose: 12.5 mg/kg/injection, schedule: Q01DX009 (ip), vehicle: saline 124 % of control and 108 % of control | [9] 113 % of control and 115 % of control | [10] 120 % of control | endpoint: mean survival time, dose: 100.0 mg/kg/injection, schedule: Q01DX009 (ip), vehicle: saline 113 % of control and 124 % of control | endpoint: mean survival time, dose: 200.0 mg/kg/injection, schedule: Q01DX009 (ip), vehicle: saline 124 % of control and 108 % of control

O=P(O)(O)OCC(O)CO.[NH-]C1CCCCC1[NH-].[Pt+2] (stereo not given)
active: endpoint: mean survival time, dose: 9.38 mg/kg/injection, schedule: Q04DX003 (ip), vehicle: other 231 % of control | endpoint: mean survival time, dose: 18.75 mg/kg/injection, schedule: Q04DX003 (ip), vehicle: other 186 % of control
inactive: endpoint: mean survival time, dose: 1.17 mg/kg/injection, schedule: Q04DX003 (ip), vehicle: other 115 % of control | endpoint: mean survival time, dose: 37.5 mg/kg/injection, schedule: Q04DX003 (ip), vehicle: other 104 % of control

CCOC(=O)Nc1cc(N(C)C)c(N)c(N)n1
inactive: endpoint: mean survival time, dose: 100.0 mg/kg/injection, schedule: Q01DX001 (ip), vehicle: carboxymethylcellulose (CMC) 100 % of control | endpoint: mean survival time, dose: 200.0 mg/kg/injection, schedule: Q01DX001 (ip), vehicle: carboxymethylcellulose (CMC) 100 % of control

CCCCCCCCCCCC[n+]1ccc(C#N)cc1
inactive: endpoint: mean survival time, dose: 9.38 mg/kg/injection, schedule: Q01DX001 (ip), vehicle: saline 103 % of control | endpoint: mean survival time, dose: 18.75 mg/kg/injection, schedule: Q01DX001 (ip), vehicle: saline 94 % of control

CC(C)(C)N1CC1CNC(=O)C(=O)NCC1CN1C(C)(C)C (stereo not given)
inactive: endpoint: mean survival time, dose: 0.78 mg/kg/injection, schedule: Q01DX009 (ip), vehicle: saline with Tween-80 100 % of control and 102 % of control | endpoint: mean survival time, dose: 1.56 mg/kg/injection, schedule: Q01DX009 (ip), vehicle: saline with Tween-80 103 % of control and 105 % of control | endpoint: mean survival time, dose: 3.12 mg/kg/injection, schedule: Q01DX009 (ip), vehicle: saline with Tween-80 114 % of control and 108 % of control | endpoint: median survival time, dose: 3.13 mg/kg/injection, schedule: Q01DX009 (ip), vehicle: saline with Tween-80 117 % of control | endpoint: median survival time, dose: 25.0 mg/kg/injection, schedule: Q01DX009 (ip), vehicle: saline with Tween-80 117 % of control and 98 % of control
active: [8] 171 % of control and 201 % of control | endpoint: mean survival time, dose: 12.5 mg/kg/injection, schedule: Q01DX009 (oral), vehicle: saline with Tween-80 150 % of control | endpoint: median survival time, dose: 6.25 mg/kg/injection, schedule: Q01DX009 (ip), vehicle: saline with Tween-80 158 % of control and 171 % of control | endpoint: median survival time, dose: 12.5 mg/kg/injection, schedule: Q01DX009 (ip), vehicle: saline with Tween-80 273 % of control and 275 % of control

CC(=O)c1c(C)cc2cccc(OC3OC(CO)C(O)C(O)C3O)c2c1O (stereo not given) (tested in a mixture with another compound)
inactive: endpoint: mean survival time, dose: 100.0 mg/kg/injection, schedule: Q04DX003 (ip), vehicle: saline 103 % of control | endpoint: mean survival time, dose: 200.0 mg/kg/injection, schedule: Q04DX003 (ip), vehicle: saline 104 % of control | endpoint: mean survival time, dose: 400.0 mg/kg/injection, schedule: Q04DX003 (ip), vehicle: saline 107 % of control

N=C(N)c1ccc(OCCCCOc2ccc(NC(=O)Nc3ccc(S(=O)(=O)F)cc3Cl)cc2)cc1
inactive: endpoint: mean survival time, dose: 12.5 mg/kg/injection, schedule: Q01DX001 (ip), vehicle: saline with Tween-80 98 % of control | endpoint: mean survival time, dose: 25.0 mg/kg/injection, schedule: Q01DX001 (ip), vehicle: saline with Tween-80 98 % of control | endpoint: mean survival time, dose: 50.0 mg/kg/injection, schedule: Q01DX001 (ip), vehicle: saline with Tween-80 96 % of control

CO[C@@]12[C@H](COC(N)=O)C3=C(C(=O)C(C)=C(NCCO)C3=O)N1C[C@@H]1N[C@@H]12
inactive: endpoint: mean survival time, dose: 10.2 mg/kg/injection, schedule: Q01DX001 (ip), vehicle: saline 96 % of control | endpoint: mean survival time, dose: 15.5 mg/kg/injection, schedule: Q01DX001 (ip), vehicle: saline 96 % of control | endpoint: mean survival time, dose: 23.2 mg/kg/injection, schedule: Q01DX001 (ip), vehicle: saline 112 % of control

Nc1nc(N)c2nc(CN(CCc3ccccc3)c3ccc(C(=O)NC(CCC(=O)O)C(=O)O)cc3)cnc2n1 (stereo not given)
inactive: endpoint: mean survival time, dose: 20.0 mg/kg/injection, schedule: Q01DX009 (ip), vehicle: sodium bicarbonate 100 % of control | endpoint: mean survival time, dose: 40.0 mg/kg/injection, schedule: Q01DX009 (ip), vehicle: sodium bicarbonate 105 % of control | endpoint: mean survival time, dose: 80.0 mg/kg/injection, schedule: Q01DX009 (ip), vehicle: sodium bicarbonate 108 % of control | endpoint: mean survival time, dose: 100.0 mg/kg/injection, schedule: Q01DX001 (ip), vehicle: sodium bicarbonate 96 % of control | endpoint: mean survival time, dose: 200.0 mg/kg/injection, schedule: Q01DX001 (ip), vehicle: sodium bicarbonate 98 % of control | endpoint: mean survival time, dose: 400.0 mg/kg/injection, schedule: Q01DX001 (ip), vehicle: sodium bicarbonate 102 % of control

O=C1C(=O)c2ccccc2C(O)=C1C(C1=C(O)c2ccccc2C(=O)C1=O)c1ccc(C(C2=C(O)c3ccccc3C(=O)C2=O)C2=C(O)c3ccccc3C(=O)C2=O)cc1
inactive: endpoint: mean survival time, dose: 100.0 mg/kg/injection, schedule: Q01DX009 (ip), vehicle: saline sonified 96 % of control | endpoint: mean survival time, dose: 200.0 mg/kg/injection, schedule: Q01DX009 (ip), vehicle: saline sonified 97 % of control | endpoint: mean survival time, dose: 400.0 mg/kg/injection, schedule: Q01DX009 (ip), vehicle: saline sonified 108 % of control
